One test has as its system active cathepsin B. The test can be described thus: Active cathepsin B in rat organotypic heart slice cultures (Aβ-induced cardiomyopathy model). Format: cell-based. Conditions: 2 days of treatment, P=0.027 vs vehicle. On the procedure: FIG. 9. The active form of cathepsin B is reduced in the slice model of Δβ-induced cardiomyopathy. Organotypic heart slice cultures from rats were treated with the control vehicle solution or with Δβ42, the peptide that accumulates in Alzheimer's disease brains as well as in heart tissue during some forms of cardiomyopathy.
To test for changes in cathepsin B during protein accumulation induced myopathy, heart slice cultures from rat were prepared and treated with […], the peptide that accumulates in Alzheimer's disease brains as well as in heart tissue during some forms of cardiomyopathy (Bateman et al., 2012; Sanbe et al., 2004, 2005).

For test [1], the system named is transgenic mouse model of Alzheimer's disease. Particulars: cited from earlier work.
Another test relates to Fischer rats. Conditions: cited from earlier work.

With “Aβ42: the peptide that accumulates in Alzheimer's disease brains as well as in heart tissue during some forms of cardiomyopathy”, the “active cathepsin B in heart slices” value in the test with active cathepsin B is recorded as “significant decrease”.
With `CC12CC3CC(C)(C1)CC(N)(C3)C2` [memantine], the spatial learning entry in test [1] is “improve spatial learning”. Moreover, in the test on Fischer rats, the spatial memory result is reported as “failed to significantly improve”.

The values are drawn from US20160136229A1, “MATERIALS FOR POSITIVE CATHEPSIN B MODULATION AND METHODS OF USE FOR TREATING MILD COGNITIVE IMPAIRMENT (MCI), EARLY DEMENTIA, A-SYNUCLEINOPATHY, TRAUMATIC BRAIN INJURY, CARDIOMYOPATHY, EYE DISEASE AND SKIN DAMAGE” (University of North Carolina at Pembroke, priority 2013, published 2016).
